Structures can show the parent of a compound that is named as a salt.

As a reminder, the melting point is the temperature of the solid-liquid transition.

`CN1CCN(c2ccccc2CC2CCCN(c3ccc(Cl)c(Cl)c3)C2=O)CC1.Cl` (stereo not drawn) displayed a melting point of 106 to 108 °C.
Next, `CN1CCN(c2ccc(F)cc2CC2CCCN(c3ccc(Cl)c(Cl)c3)C2=O)CC1.Cl` (stereo not drawn): 83 to 85 °C; `CN(C)CCOc1ccccc1C=C1CCN(c2ccc(Cl)c(Cl)c2)C1=O` (as salt: HCl) [Example 27, 1-(3,4-Dichlorophenyl)-3-[2-(2-dimethylaminoethoxy)-benzylidene]-pyrrolidin-2one]: 111 to 112 °C; `CN1CCN(c2ccccc2C=C2CCN(c3ccc(C(F)(F)F)cc3)C2=O)CC1` (as salt: hydrochloride) (hydrate or solvate) [Example 16, 3-[2-(4-Methylpiperazin-1-yl)-benzylidene]-1-(4-trifluoromethylphenyl)-pyrrolidin-2-one]: 181 to 183 °C.
Turning to `CN1CCN(c2ccccc2C=C2C(=O)N(C)c3ccccc32)CC1.Cl.O` (hydrate or solvate), the melting point was 120 °C (dec.).
Next, `CN1CCN(c2ccccc2C=C2CCCN(c3ccc(Cl)cc3)C2=O)CC1` [Example 11, 1-(4Chlorophenyl)-3-[2-(4-methylpiperazin-1-yl)-benzylidene]-piperidin-2-one]: 177 to 178 °C; `CN1CCN(c2ccccc2C=C2CCCN(c3ccc(Cl)c(Cl)c3)C2=O)CC1` [Example 12, 1-(3,4-Dichlorophenyl)-3-[2-(4-methylpiperazin-1-yl)-benzylidene]-piperidin-2-one]: 138 to 139.5 °C.
Under `CN1CCN(c2ccc(F)cc2C=C2CCCN(c3ccc(Cl)cc3)C2=O)CC1` [Example 13, 1-(4-Chlorophenyl)-3-[5-fluoro-2-(4-methylpiperazin-1-yl)-benzylidene]-piperidin-2-one] stands 158 to 159 °C; under `CN1CCN(c2ccc(F)cc2C=C2CCCN(c3ccc(Cl)c(Cl)c3)C2=O)CC1` [Example 14, 1-(3,4-Dichlorophenyl)-3-[5-fluoro-2-(4methylpiperazin-1-yl)-benzylidene]-piperidin-2-one], 161 to 162 °C; under `CN1CCN(c2ccccc2C=C2CCN(c3ccccc3)C2=O)CC1` [Example 15, 3-[2-(4-Methylpiperazin-1-yl)-benzylidene]-1 phenylpyrrolidin-2-one], 178 to 179.5 °C.
Next, `CN1CCN(c2ccccc2C=C2CCN(c3ccc(C(F)(F)F)cc3)C2=O)CC1` [Example 16, 3-[2-(4-Methylpiperazin-1-yl)-benzylidene]-1-(4-trifluoromethylphenyl)-pyrrolidin-2-one]: 185 to 186.5 °C.
Take `CN1CCN(c2ccccc2C=C2CCN(c3ccc(Cl)cc3)C2=O)CC1` [Example 18, 1-(4-Chlorophenyl)-3-[2-(4-methylpiperazin-1-yl)-benzylidene]-pyrrolidin-2-one]: the melting point lay within 188 to 190 °C.
For the compound `CN1CCN(c2cc(F)ccc2C=C2CCN(c3ccccc3)C2=O)CC1` [Example 19, 3-[4Fluoro-2-(4-methylpiperazin-1-yl)-benzylidene]-1-phenylpyrrolidin-2-one], the melting point lay within 199 to 200.5 °C.
Next, `CN1CCN(c2cccc(F)c2C=C2CCN(c3ccc(Cl)c(Cl)c3)C2=O)CC1` [Example 20, 1-(3,4-Dichlorophenyl)-3-[2-fluoro-6-(4-methylpiperazin-1-yl)-benzylidene]-pyrrolidin-2-one]: 170 to 171 °C; `CN1CCN(c2ccc(F)cc2C=C2CCCN(c3ccc(F)c(F)c3)C2=O)CC1` [Example 21, 1-(3,4-Difluorophenyl)-3-[5-fluoro-2(4-methylpiperazin-1-yl)-benzylidene]-piperidin-2-one]: 168 to 170 °C.
Under `CN1CCN(c2ccc(F)cc2C=C2CCCN(CCc3ccc(Cl)cc3)C2=O)CC1` [Example 22, 1-[2-(4Chlorophenyl)ethyl]-3-[5-fluoro-2-(4-methylpiperazin-1-yl)-benzylidene]-piperidin-2-one] stands 88 to 90 °C.
Under `CN1CCN(c2ccccc2C=C2CCN(Cc3ccc(Cl)cc3)C2=O)CC1` [Example 23, 1-(4-Chlorobenzyl)-3-[2-(4-methylpiperazin-1-yl)-benzylidene]-pyrrolidin-2-one] stands 129 to 130 °C; under `CN1CCN(c2ccc(F)cc2C=C2CCN(Cc3ccc(Cl)cc3)C2=O)CC1` [Example 24, 1-(4-Chlorobenzyl)-3-[5-fluoro-2-(4-methylpiperazin-1-yl)-benzylidene]-pyrrolidin-2one], 131 to 132 °C; under `Cc1ccc(N2CCN(C)CC2)c(C=C2CCN(c3ccc(Cl)c(Cl)c3)C2=O)c1` [Example 28, 1-(3,4-Dichlorophenyl)-3-[5-methyl-2-(4-methylpiperazin-1-yl)-benzylidene]-pyrrolidin-2one], 149 to 150 °C.
The compound `CN1CCN(c2ccccc2CC2CCN(c3ccc(F)c(F)c3)C2=O)CC1` (stereo not drawn) [Example 29, 1-(3,4-Difluorophenyl)-3-[2-(4-methylpiperazin-1-yl)-benzyl]-pyrrolidin-2-one] gave a melting point of 130 to 131 °C.
Next, `CN1CCN(c2ccccc2CC2CCN(c3ccccc3)C2=O)CC1` (stereo not drawn) [Example 30, 3-[2-(4-Methylpiperazin-1-yl)-benzyl]-1-phenyl-pyrrolidin-2-one]: 104 to 105.5 °C.

For the origin of these results see patent US6924289B2, “Benzyl(Idene)-lactam derivatives, their preparation and their use as selective (ANT) agonists of 5-HT1A- and/or 5-HT1D receptors” (Pfizer Inc, priority 1996, dated 2005).
